Reference: ChEMBL document CHEMBL1159135, “Enzymatic fucosylations with purine-diphosphate-fucoses (PDP-Fucoses)” (Bioorg Med Chem Lett, 1996)

How the values were obtained:
[1] = molecular target: T1, 3-galactosyl-N-acetylglucosaminide 4-alpha-L-fucosyltransferase FUT3 (Homo sapiens) (UniProt P21217); test: In vitro inhibition of Fucosyltransferase 3; set-up: concentration or dose not given beside the values; details: concentration not given here
T1 sequence (whole entry): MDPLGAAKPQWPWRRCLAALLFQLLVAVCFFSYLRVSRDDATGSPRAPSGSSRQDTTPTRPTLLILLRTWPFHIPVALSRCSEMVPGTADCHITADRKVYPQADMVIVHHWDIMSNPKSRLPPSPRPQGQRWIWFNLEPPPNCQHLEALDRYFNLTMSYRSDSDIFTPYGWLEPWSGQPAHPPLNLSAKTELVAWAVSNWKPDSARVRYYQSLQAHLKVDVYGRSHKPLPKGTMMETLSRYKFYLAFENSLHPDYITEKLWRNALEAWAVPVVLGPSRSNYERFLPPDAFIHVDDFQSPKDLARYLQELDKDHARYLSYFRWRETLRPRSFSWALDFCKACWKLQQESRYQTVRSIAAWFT

[2] = molecular target: T2, 4-galactosyl-N-acetylglucosaminide 3-alpha-L-fucosyltransferase FUT6 (Homo sapiens) (UniProt P51993); test: In vitro inhibition of Fucosyltransferase 6; set-up: concentration or dose not given beside the values; details: concentration not given here
T2 sequence (whole entry): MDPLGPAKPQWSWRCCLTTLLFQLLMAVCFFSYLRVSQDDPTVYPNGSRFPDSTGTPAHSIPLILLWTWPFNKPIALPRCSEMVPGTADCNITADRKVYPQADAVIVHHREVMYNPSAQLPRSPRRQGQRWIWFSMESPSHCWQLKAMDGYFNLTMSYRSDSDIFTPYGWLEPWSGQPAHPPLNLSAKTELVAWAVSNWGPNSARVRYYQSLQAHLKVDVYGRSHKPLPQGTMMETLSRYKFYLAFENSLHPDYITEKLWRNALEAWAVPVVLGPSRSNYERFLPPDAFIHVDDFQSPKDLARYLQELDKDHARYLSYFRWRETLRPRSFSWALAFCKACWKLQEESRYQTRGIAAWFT

C[C@@H]1O[C@H](OP(=O)(O)OP(=O)(O)OC[C@H]2O[C@@H](n3cnc4c(O)nc(N)nc43)[C@H](O)[C@@H]2O)[C@H](O)[C@@H](O)[C@@H]1O showed an inhibition [1] of 96% and an inhibition [2] of 83%.

C[C@@H]1O[C@H](OP(=O)(O)OP(=O)(O)OC[C@H]2O[C@@H](n3cnc4c(=O)[nH]c(=O)[nH]c43)[C@H](O)[C@@H]2O)[C@@H](O)[C@@H](O)[C@H]1O gave an inhibition [1] of 73% and an inhibition [2] of 62%.

C[C@@H]1O[C@H](OP(=O)(O)OP(=O)(O)OC[C@H]2O[C@@H](n3cnc4c(O)ncnc43)[C@H](O)[C@@H]2O)[C@@H](O)[C@@H](O)[C@H]1O showed an inhibition [1] of 68% and an inhibition [2] of 72%.

C[C@@H]1O[C@H](OP(=O)(O)OP(=O)(O)OC[C@H]2O[C@@H](n3cnc4c(N)ncnc43)[C@H](O)[C@@H]2O)[C@@H](O)[C@@H](O)[C@H]1O was tested, and the inhibition [1] was 76% and the inhibition [2] was 60%.

C[C@@H]1O[C@H](OP(=O)(O)OP(=O)(O)OP(=O)(O)OC[C@H]2O[C@@H](n3cnc4c(O)nc(N)nc43)[C@H](O)[C@@H]2O)[C@H](O)[C@@H](O)[C@@H]1O showed an inhibition [1] of 0% and an inhibition [2] of 0%.
